Experimental data: article PMC4912218, “Targeted metabolomics of Gammarus pulex following controlled exposures to selected pharmaceuticals in water” (The Science of the Total Environment, 2016)

System: Gammarus pulex
Assay: Targeted metabolite profiling (LC-HRMS) of G. pulex after exposure at NOAEL and LOAEL
Format: in vivo
Protocol: Approximately 100 specimens were introduced in a tank containing 1 L of AFW (control), 1 L of AFW spiked with C1 and 1 L of AFW with C2. At three different times (2, 6 and 24 h), 4 replicates of live G. pulex (a pool of 6–7 animals for each replicate) were collected, frozen on dry ice and then stored at − 80 °C before metabolite profiling was performed.
Quantification of pharmaceutical concentrations in G. pulex at the 24 h exposure interval was performed. Separate exposures were set up in triplicate in beakers containing 200 mL of exposure solution (AFW spiked with the respective C1 pharmaceutical dose) and 20 organisms. At 24 h, animals were immediately rinsed with ultra-pure water and then frozen at − 20 °C for 24 h. […] Prior to extraction, frozen G. pulex samples were lyophilised at − 50 °C under vacuum for 48 h and milled in an agate mortar to a fine powder. For each analysis, 20 mg of a lyophilised composite sample were transferred to 2 mL polypropylene tubes (Eppendorf®, Hamburg, Germany), for solid-liquid extraction (SLE). […] Then, samples were shaken for 25 min on a vibration plate (IKA® KS 260 basic) and centrifuged at 14,000 rpm for 25 min at 0 °C. Finally, the supernatant was transferred to a chromatographic vial by using a […] syringe filter (Whatman, GE Healthcare Life Sciences, Buckinghamshire, UK). All samples were stored at − 80 °C until LC-HRMS analysis.
Briefly, 50 mg of lyophilised G. pulex were extracted in 5 mL of acetonitrile and pre-concentrated on Oasis HLB SPE cartridges (6 mL, 200 mg sorbent). The extract was eluted, dried-down and reconstituted in starting LC mobile phase. […] Organic acids, nucleosides, nucleotides, sugars and AAs were measured using LC–HRMS. An Exactive™ mass spectrometer equipped with heated electrospray ionization (H-ESI) source was used (Thermo Fisher Scientific, Bremen, Germany). The system was equipped with a HTC PAL autosampler and a Surveyor MS Plus pump. A TSK Gel-Amide 80 column (2 × 250 mm, 5 μm) for analyte separation was purchased from Sigma Aldrich. Mobile phases were binary mixtures of acetonitrile (A) and 5 mM ammonium acetate (pH 5) in HPLC-grade water (B). […] The flow rate was set at 150 μL min^− 1 and the injection volume was 5 μL. […] Full scan acquisition over a mass range of 80–800 Da was performed at 70,000 full width at half maximum (FWHM) and spray voltage at 3.00 kV, capillary voltage at 30 V, skimmer voltage at 28 V and tube lens voltage at 130 V were used. A sheath gas flow rate of 45 arbitrary units (au), an auxiliary gas flow rate of 10 au and a capillary temperature at 300 °C were selected.
Here, pharmaceutical residue quantification in exposed G. pulex was performed by a 3-point matrix-matched calibration curve. […] The algal amino acid mixture-^13C,^15N (see Table 1) was used as internal standard (IS) for extraction and analytical control. L-ornithine hydrochloride, inosine, thymidine, taurine, 1.7-dimethylxanthine and (−)-riboflavin were quantified using either ^13C,^15N-proline or ^13C,^15N-tyrosine as the internal standard. The remaining 15 compounds were quantified using external calibration and the target compound itself was used as external standard. […] The method detection limit (MDL) was calculated following the same procedure, using spiked lyophilised G. pulex samples at a concentration of 1 μg g^− 1. Intra-assay variation was assessed using five consecutive injections of 5 ng μL^− 1 standard solution, and inter-assay variation was determined by measuring the same standard solution on four different days. […] Recovery studies were performed in triplicate, using lyophilised G. pulex samples spiked at 1 μg g^− 1 with the metabolites mixture and the algal amino acid mixture-^13C, ^15N.

Compound: Oc1cc(Cl)ccc1Oc1ccc(Cl)cc1Cl [Triclosan]
- (-)-Riboflavin concentration in G. pulex (2h, C1= 0.1 mg/L): 2.6 ± 0.7 µg/g
- ADP concentration in G. pulex (2h, C1= 0.1 mg/L): 28.6 ± 2 µg/g
- Cytidine concentration in G. pulex (2h, C1= 0.1 mg/L): 34 ± 22 µg/g
- Hypoxanthine concentration in G. pulex (2h, C1= 0.1 mg/L): 123 ± 4 µg/g
- Inosine concentration in G. pulex (2h, C1= 0.1 mg/L): 14808 ± 1341 µg/g
- L-2-amino-n-butyric concentration in G. pulex (2h, C1= 0.1 mg/L): 15.1 ± 3 µg/g
- L-(-)-Proline concentration in G. pulex (2h, C1= 0.1 mg/L): 499 ± 11 µg/g
- L-Alanine concentration in G. pulex (2h, C1= 0.1 mg/L): 999 ± 2 µg/g
- L-Citrulline concentration in G. pulex (2h, C1= 0.1 mg/L): 9.7 ± 0.4 µg/g
- L-Isoleucine concentration in G. pulex (2h, C1= 0.1 mg/L): 2067 ± 110 µg/g
- L-Leucine concentration in G. pulex (2h, C1= 0.1 mg/L): 443 ± 1 µg/g
- L-Methionine concentration in G. pulex (2h, C1= 0.1 mg/L): 5.4 ± 0.6 µg/g
- L-Phenylalanine concentration in G. pulex (2h, C1= 0.1 mg/L): 340 ± 28 µg/g
- L-Serine concentration in G. pulex (2h, C1= 0.1 mg/L): 158 ± 7 µg/g
- L-Threonine concentration in G. pulex (2h, C1= 0.1 mg/L): 740 ± 6 µg/g
- L-Tryptophan concentration in G. pulex (2h, C1= 0.1 mg/L): 74 ± 20 µg/g
- L-Tyrosine concentration in G. pulex (2h, C1= 0.1 mg/L): 247 ± 8 µg/g
- L-Valine concentration in G. pulex (2h, C1= 0.1 mg/L): 500 ± 1 µg/g
- L-aspartic acid concentration in G. pulex (2h, C1= 0.1 mg/L): 62.6 ± 3 µg/g
- NADH concentration in G. pulex (2h, C1= 0.1 mg/L): 7.11 ± 0.1 µg/g
- Taurine concentration in G. pulex (2h, C1= 0.1 mg/L): 7300 ± 168 µg/g
- Thymidine concentration in G. pulex (2h, C1= 0.1 mg/L): 2918 ± 603 µg/g
- Trehalose concentration in G. pulex (2h, C1= 0.1 mg/L): 197 ± 1 µg/g
- Uridine concentration in G. pulex (2h, C1= 0.1 mg/L): 699 ± 21 µg/g
- (-)-Riboflavin concentration in G. pulex (2h, C2= 0.3 mg/L): 2.4 ± 0.5 µg/g
- ADP concentration in G. pulex (2h, C2= 0.3 mg/L): 30.5 ± 0.2 µg/g
- Cytidine concentration in G. pulex (2h, C2= 0.3 mg/L): 15 ± 6 µg/g
- Hypoxanthine concentration in G. pulex (2h, C2= 0.3 mg/L): 74 ± 22 µg/g
- Inosine concentration in G. pulex (2h, C2= 0.3 mg/L): 20640 ± 179 µg/g
- L-2-amino-n-butyric concentration in G. pulex (2h, C2= 0.3 mg/L): 17.0 ± 2 µg/g
- L-(-)-Proline concentration in G. pulex (2h, C2= 0.3 mg/L): 313 ± 1 µg/g
- L-Alanine concentration in G. pulex (2h, C2= 0.3 mg/L): 827 ± 10 µg/g
- L-Citrulline concentration in G. pulex (2h, C2= 0.3 mg/L): 14.6 ± 0.4 µg/g
- L-Isoleucine concentration in G. pulex (2h, C2= 0.3 mg/L): 1140 ± 38 µg/g
- L-Leucine concentration in G. pulex (2h, C2= 0.3 mg/L): 361 ± 17 µg/g
- L-Methionine concentration in G. pulex (2h, C2= 0.3 mg/L): 3.8 ± 0.6 µg/g
- L-Phenylalanine concentration in G. pulex (2h, C2= 0.3 mg/L): 200 ± 15 µg/g
- L-Serine concentration in G. pulex (2h, C2= 0.3 mg/L): 158 ± 7 µg/g
- L-Threonine concentration in G. pulex (2h, C2= 0.3 mg/L): 530 ± 7 µg/g
- L-Tryptophan concentration in G. pulex (2h, C2= 0.3 mg/L): 142 ± 7 µg/g
- L-Tyrosine concentration in G. pulex (2h, C2= 0.3 mg/L): 216 ± 5 µg/g
- L-Valine concentration in G. pulex (2h, C2= 0.3 mg/L): 268 ± 1 µg/g
- L-aspartic acid concentration in G. pulex (2h, C2= 0.3 mg/L): 60.5 ± 3 µg/g
- NADH concentration in G. pulex (2h, C2= 0.3 mg/L): 9.3 ± 0.2 µg/g
- Taurine concentration in G. pulex (2h, C2= 0.3 mg/L): 7645 ± 212 µg/g
- Thymidine concentration in G. pulex (2h, C2= 0.3 mg/L): 639 ± 140 µg/g
- Trehalose concentration in G. pulex (2h, C2= 0.3 mg/L): 272 ± 10 µg/g
- Uridine concentration in G. pulex (2h, C2= 0.3 mg/L): 506 ± 66 µg/g
- (-)-Riboflavin concentration in G. pulex (6h, C1= 0.1 mg/L): 3.4 ± 3 µg/g
- ADP concentration in G. pulex (6h, C1= 0.1 mg/L): 18.6 ± 3 µg/g
- Cytidine concentration in G. pulex (6h, C1= 0.1 mg/L): 66 ± 21 µg/g
- Hypoxanthine concentration in G. pulex (6h, C1= 0.1 mg/L): 154 ± 27 µg/g
- Inosine concentration in G. pulex (6h, C1= 0.1 mg/L): 18116 ± 26 µg/g
- L-2-amino-n-butyric concentration in G. pulex (6h, C1= 0.1 mg/L): 21.1 ± 4 µg/g
- L-(-)-Proline concentration in G. pulex (6h, C1= 0.1 mg/L): 462 ± 5 µg/g
- L-Alanine concentration in G. pulex (6h, C1= 0.1 mg/L): 1119 ± 48 µg/g
- L-Citrulline concentration in G. pulex (6h, C1= 0.1 mg/L): 9.0 ± 0.9 µg/g
- L-Isoleucine concentration in G. pulex (6h, C1= 0.1 mg/L): 2685 ± 88 µg/g
- L-Leucine concentration in G. pulex (6h, C1= 0.1 mg/L): 459 ± 4 µg/g
- L-Methionine concentration in G. pulex (6h, C1= 0.1 mg/L): 5.0 ± 0.5 µg/g
- L-Phenylalanine concentration in G. pulex (6h, C1= 0.1 mg/L): 417 ± 5 µg/g
- L-Serine concentration in G. pulex (6h, C1= 0.1 mg/L): 179 ± 13 µg/g
- L-Threonine concentration in G. pulex (6h, C1= 0.1 mg/L): 787 ± 22 µg/g
- L-Tryptophan concentration in G. pulex (6h, C1= 0.1 mg/L): 97 ± 16 µg/g
- L-Tyrosine concentration in G. pulex (6h, C1= 0.1 mg/L): 301 ± 1 µg/g
- L-Valine concentration in G. pulex (6h, C1= 0.1 mg/L): 601 ± 9 µg/g
- L-aspartic acid concentration in G. pulex (6h, C1= 0.1 mg/L): 43.2 ± 2 µg/g
- NADH concentration in G. pulex (6h, C1= 0.1 mg/L): 7.7 ± 1 µg/g
- Taurine concentration in G. pulex (6h, C1= 0.1 mg/L): 10516 ± 434 µg/g
- Thymidine concentration in G. pulex (6h, C1= 0.1 mg/L): 3697 ± 180 µg/g
- Trehalose concentration in G. pulex (6h, C1= 0.1 mg/L): 259 ± 8 µg/g
- Uridine concentration in G. pulex (6h, C1= 0.1 mg/L): 723 ± 21 µg/g
